Measured values taken from the supplement of paper PMC10307832.

Assays:
Assay in all cases: relative viability (nuclei count vs DMSO), 5 days (fraction); higher = more cells survive
[1] = compound: C#Cc1cccc(Nc2ncnc3cc(OC)c(OCCCCCCC(=O)NO)cc23)c1 [CUDC-101] + COc1cc2c(Oc3ccc(NC(=O)C4(C(=O)Nc5ccc(F)cc5)CC4)cc3F)ccnc2cc1OCCCN1CCOCC1 [Foretinib] (partner 0.25 µM)
In short: (§1)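 A single step with final 0.05% Triton X-100, 1% formaldehyde and 1 ug/ml Hoechst fixed the cells and stained nuclei 5 days after treatment. Lung cancer cell lines in 1536-well plates had been treated by pin tool the day after seeding with one drug alone or a fixed anchor-drug dose plus five library-drug doses (not always all listed) in √10 steps, and nuclei were counted on 4× images. Relative viability is the ratio of nuclei in treated wells to nuclei in vehicle wells, taken as the median of duplicate plates.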

[2] = compound: COc1cc2/c(=N/c3ccc(Br)cc3F)nc[nH]c2cc1OCC1CCN(C)CC1 [Vandetanib] + COc1cc2c(Oc3ccc(NC(=O)C4(C(=O)Nc5ccc(F)cc5)CC4)cc3F)ccnc2cc1OCCCN1CCOCC1 [Foretinib] (partner 0.25 µM)
In short: as §1

[3] = compound: C1=CC=C2C(=C1)N=C(S2)C(C#N)C3=NC(=NC=C3)NCCC4=CN=CC=C4 + O=C(c1cc(Cc2n[nH]c(=O)c3ccccc23)ccc1F)N1CCN(C(=O)C2CC2)CC1 [Olaparib] (partner 8 µM)
In short: as §1

[4] = compound: C#Cc1cccc(Nc2ncnc3cc(OC)c(OCCCCCCC(=O)NO)cc23)c1 [CUDC-101] + NC(=O)Nc1cc(-c2cccc(F)c2)sc1C(=O)N[C@H]1CCCNC1 [AZD7762] (partner 0.2 µM)
In short: as §1

Row | Cell Line | relative viability ([1]; first compound 0.01 µM) | relative viability ([1]; first compound 0.03162 µM) | relative viability ([1]; first compound 0.1 µM) | relative viability ([1]; first compound 0.3162 µM) | relative viability ([1]; first compound 1 µM) | relative viability ([2]; first compound 0.02 µM) | relative viability ([2]; first compound 0.06325 µM) | relative viability ([2]; first compound 0.2 µM) | relative viability ([2]; first compound 0.6325 µM) | relative viability ([2]; first compound 2 µM) | relative viability ([3]; first compound 0.005 µM) | relative viability ([3]; first compound 0.01581 µM) | relative viability ([3]; first compound 0.05 µM) | relative viability ([3]; first compound 0.1581 µM) | relative viability ([3]; first compound 0.5 µM) | relative viability ([4]; first compound 0.01 µM) | relative viability ([4]; first compound 0.03162 µM) | relative viability ([4]; first compound 0.1 µM) | relative viability ([4]; first compound 0.3162 µM) | relative viability ([4]; first compound 1 µM)
1 | HCC-78 | 0.549 | 0.56 | 0.543 | 0.494 | 0.268 | 0.546 | 0.606 | 0.524 | 0.57 | 0.432 | 0.852 | 0.935 | 0.816 | 0.936 | 0.756 | 0.66 | 0.531 | 0.603 | 0.355 | 0.323
2 | HCC-366 | 0.939 | 0.93 | 0.95 | 0.847 | 0.882 | 1.02 | 0.941 | 0.501 | 0.893 | 0.907 | 0.189 | 0.449 | 0.349 | 0.372 | 0.354 | 0.254 | 0.174 | 0.285 | 0.289 | 0.211
3 | HCC-827 | 1 | 0.436 | 0.203 | 0.153 | 0.167 | 1.07 | 1 | 0.706 | 0.296 | 0.169 | 0.568 | 0.616 | 0.728 | 0.657 | 0.566 | 0.206 | 0.145 | 0.13 | 0.117 | 0.113
4 | HOP-62 | 1.08 | 1.08 | 1.1 | 1.14 | 0.713 | 1.04 | 1.02 | 0.562 | 1.11 | 1.02 | 0.741 | 0.368 | 0.408 | 0.265 | 0.191 | 0.61 | 0.448 | 0.447 | 0.424 | 0.294
5 | IA-LM | 1.27 | 1.1 | 1.12 | 1.11 | 0.657 | 1.32 | 0.981 | 1.11 | 1.33 | 1.12 | – | 0.883 | 0.804 | 0.836 | 0.763 | – | – | – | – | –
6 | LC-2-ad | 0.863 | 0.947 | 0.904 | 0.899 | 0.52 | 1 | 0.854 | 0.939 | 0.801 | 0.656 | 0.699 | 0.701 | 0.762 | 0.729 | 0.673 | 0.904 | 0.858 | 0.824 | 0.778 | 0.581
7 | NCI-H520 | 0.961 | 0.746 | 0.804 | 0.752 | 0.509 | 0.623 | 0.682 | 0.194 | 0.754 | 0.806 | 0.302 | 0.307 | 0.309 | 0.321 | 0.29 | – | – | – | – | –
8 | NCI-H522 | – | – | – | – | – | – | – | – | – | – | 0.66 | 0.638 | 0.634 | 0.533 | 0.751 | 0.932 | 0.753 | 0.791 | 0.75 | 0.689
9 | NCI-H661 | 1.06 | 0.861 | 1.05 | 0.98 | 0.536 | 0.972 | 0.997 | 0.999 | 1.07 | 0.847 | 0.543 | 0.8 | 0.723 | 0.801 | 0.613 | – | – | – | – | –
10 | NCI-H1299 | 1.08 | 1.06 | 1.13 | 1.12 | 1.04 | 1.11 | 1.03 | 1.12 | 1.12 | 1.1 | 0.966 | 1.05 | 1.01 | 1.05 | 0.894 | – | – | – | – | –
11 | NCI-H1563 | 0.925 | 0.872 | 0.851 | 0.895 | 0.87 | 0.959 | 0.96 | 0.885 | 0.806 | 0.866 | – | – | – | – | – | – | – | – | – | –
12 | NCI-H1623 | 0.847 | 0.821 | 0.711 | 0.911 | 0.483 | 0.913 | 0.829 | 0.8 | 0.827 | 0.764 | – | – | – | – | – | – | – | – | – | –
13 | NCI-H1648 | – | – | – | – | – | – | – | – | – | – | – | 1.02 | – | 0.977 | 1.09 | 0.846 | 0.566 | 0.646 | 0.45 | 0.361
14 | NCI-H1650 | 1.09 | 0.615 | 0.976 | 0.905 | 0.59 | 1.28 | 0.693 | 0.224 | 0.753 | 0.641 | 0.718 | 0.719 | 0.708 | 0.882 | 0.507 | – | – | – | – | –
15 | NCI-H1792 | – | – | – | – | – | – | – | – | – | – | – | 0.709 | 0.427 | 0.38 | 0.215 | 0.789 | 0.513 | 0.687 | 0.653 | 0.423
16 | NCI-H2009 | 1.2 | 1.18 | 1.36 | 1.28 | 1.14 | 1.26 | 1.14 | 0.197 | 1.27 | 1.22 | 0.667 | 0.669 | 0.664 | 0.438 | 0.684 | – | – | – | – | –
17 | NCI-H2023 | 0.759 | 0.672 | 0.836 | 0.764 | 0.615 | 0.852 | 0.824 | 0.0955 | 0.591 | 0.431 | 0.508 | 0.543 | 0.562 | 0.541 | 0.447 | – | – | – | – | –
18 | NCI-H2228 | 0.763 | 0.939 | 1.11 | 0.964 | 0.719 | 0.92 | 0.625 | 0.167 | 0.803 | 0.822 | 0.481 | 0.738 | 0.489 | 0.729 | 0.527 | – | – | – | – | –
19 | SK-LU-1 | 0.885 | 0.793 | 0.891 | 0.771 | 0.662 | 0.819 | 0.564 | 0.197 | 0.798 | 0.805 | 0.404 | 0.454 | 0.481 | 0.513 | 0.483 | – | – | – | – | –
20 | SK-MES-1 | 0.937 | 0.843 | 0.981 | 1.01 | 0.679 | 0.986 | 0.802 | 1.01 | 0.83 | 0.665 | 0.821 | 0.76 | 0.617 | 0.798 | 0.569 | – | – | – | – | –
21 | SW 1573 | 1.02 | 1.03 | 1.08 | 0.862 | 0.611 | 0.965 | 0.946 | 0.81 | 0.91 | 0.951 | 0.337 | 0.491 | 0.496 | 0.508 | 0.484 | – | – | – | – | –
